Data as given in patent publication US9708336B2, “Metallo-beta-lactamase inhibitors” (priority 2014, dated 2017).
Read-outs that look alike come from different tables or passages of the source.

What was measured:
[1] = target: IMP-1 (Serratia marcescens, UniProt P52699); assay: biochemical; format: biochemical; conditions: read-out: IMP-1 IC50
[2] = target: VIM-1 (Pseudomonas aeruginosa (strain ATCC 15692 / DSM 22644 / CIP 104116 / JCM 14847 / LMG 12228 / 1C / PRS 101 / PAO1), UniProt A0A0F7KYQ8); assay: Enzyme activity: determination of IC50, fluorescence assay with CCF2-FA substrate (VIM-1); format: biochemical
[3] = target: NDM-1 (Klebsiella pneumoniae, UniProt C7C422); assay: biochemical; format: biochemical; conditions: read-out: NDM-1 IC50
[4] = test system: Escherichia coli expressing NDM-1 (CLB30005); assay: Antibiotic potentiation activity: synergistic concentration (MITC95) with imipenem, OD600 growth; format: cell-based; conditions: for Escherichia coli expressing NDM-1 (CLB 30005) MITC95: concentration giving 95% inhibition of bacterial growth; for Escherichia coli MITC95: Escherichia coli expressing NDM-1 (CLB30005), 95% growth inhibition
In short: (§1)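 Test compound was combined with 4 μg/ml imipenem (or optionally 1 μg/ml), or with no antibiotic, against saline-suspended colonies diluted 1:100 in 1.1×CAMHB. Strains were E. coli NDM-1, S. marcescens IMP-1 and K. pneumoniae VIM-1. Plates were incubated 22–24 h at 35 °C before absorbance (OD600) readout.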

[5] = test system: Serratia marcescens expressing IMP-1 (CL5741); assay: as above; format: cell-based; conditions: for Serratia marcescens expressing IMP-1 (CL5741) MITC95: concentration giving 95% inhibition of bacterial growth; for Serratia marcescens MITC95: Serratia marcescens expressing IMP-1 (CL5741), 95% growth inhibition
In short: as §1

[6] = test system: Klebsiella pneumoniae expressing VIM-1 (IHMA599644); assay: as above; format: cell-based; conditions: for Klebsiella pneumoniae expressing VIM-1 (IHMA 599644) MITC95: concentration giving 95% inhibition of bacterial growth; for Klebsiella pneumoniae MITC95: Klebsiella pneumoniae expressing VIM-1 (IHMA599644), 95% growth inhibition
In short: as §1

[7] = fluorescence assay with CCF2-FA substrate
[8] = VIM-1 IC50, fluorescence assay with CCF2-FA substrate
[9] = fluorescence assay with CCF2-FA substrate, read-out: VIM-1 IC50
[10] = IMP-1 enzyme, CCF2-FA fluorescence assay
[11] = VIM-1 enzyme, CCF2-FA fluorescence assay, read-out: VIM-1 IC50
[12] = NDM-1 enzyme, CCF2-FA fluorescence assay
[13] = VIM-1 IC50, VIM-1 enzyme, CCF2-FA fluorescence assay

IMP-1, sequence (P52699 whole entry, looked up): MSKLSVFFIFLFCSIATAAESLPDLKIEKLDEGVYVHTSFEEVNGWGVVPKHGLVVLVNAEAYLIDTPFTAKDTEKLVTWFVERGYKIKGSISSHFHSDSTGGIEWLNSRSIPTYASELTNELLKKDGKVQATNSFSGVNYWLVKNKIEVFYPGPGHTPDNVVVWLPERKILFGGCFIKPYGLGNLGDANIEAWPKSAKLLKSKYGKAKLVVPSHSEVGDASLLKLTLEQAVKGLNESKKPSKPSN
NDM-1, sequence (C7C422 whole entry, looked up, species assumed): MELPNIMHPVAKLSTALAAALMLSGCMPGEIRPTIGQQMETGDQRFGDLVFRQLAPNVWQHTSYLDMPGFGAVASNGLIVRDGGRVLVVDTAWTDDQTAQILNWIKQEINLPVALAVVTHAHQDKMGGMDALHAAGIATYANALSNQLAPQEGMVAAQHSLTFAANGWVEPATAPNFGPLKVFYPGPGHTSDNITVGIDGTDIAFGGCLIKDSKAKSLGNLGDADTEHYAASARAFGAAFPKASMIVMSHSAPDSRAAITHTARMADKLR

Row | SMILES | IC50 [1, 7] [nM] | IC50 [2, 8] [nM] | IC50 [3, 7] [nM] | Escherichia coli expressing NDM-1 (CLB 30005) MITC95 [4] [µM] | Serratia marcescens expressing IMP-1 (CL5741) MITC95 [5] [µM] | Klebsiella pneumoniae expressing VIM-1 (IHMA 599644) MITC95 [6] [µM] | IC50 [2, 9] [nM] | IC50 [1, 10] [nM] | IC50 [2, 11] [nM] | IC50 [3, 12] [nM] | Escherichia coli MITC95 [4] [µM] | Serratia marcescens MITC95 [5] [µM] | Klebsiella pneumoniae MITC95 [6] [µM] | IC50 [2, 13] [nM]
1 | NS(=O)(=O)c1cccc(-c2ccc3[nH]nnc3c2)c1-c1nn[nH]n1 [Example 74, 3-(1H-benzotriazol-5-yl)-2-(2H-tetrazol-5-yl)benzenesulfonamide] | 1610 | 475 | 26.4 | 0.9766 | 18.75 | 50 | – | – | – | – | – | – | – | –
2 | C[C@@H]1NC(=O)O[C@H]1c1ccc(-c2cccc(S(N)(=O)=O)c2-c2nnn[nH]2)cc1 [Example 29, 4′-[(4S,5S)-4-methyl-2-oxo-1,3-oxazolidin-5-yl]-2-(1H-tetrazol-5-yl)biphenyl-3-sulfonamide] | 12.1 | – | 1.49 | 3.125 | 6.25 | 200 | 52.8 | – | – | – | – | – | – | –
3 | NS(=O)(=O)c1cccc(-c2cccc(F)n2)c1-c1nn[nH]n1 [Example 36, 3-(6-fluoropyridin-2-yl)-2-(2H-tetrazol-5-yl)benzenesulfonamide] | 790 | – | 38.7 | 1.953 | 50 | 75 | 219 | – | – | – | – | – | – | –
4 | NS(=O)(=O)c1cccc(-c2ccnn2Cc2ccccc2)c1-c1nn[nH]n1 [Example 95, 3-(1-benzyl-1H-pyrazol-5-yl)-2-(2H-tetrazol-5-yl)benzenesulfonamide] | 534 | 375 | 1.51 | 3.906 | 106.3 | >200 | – | – | – | – | – | – | – | –
5 | NS(=O)(=O)c1cccc(-c2ccn3cncc3c2)c1-c1nn[nH]n1 [Example 247, 3-(Imidazo[1,5-a]pyridin-7-yl)-2-(2H-tetrazol-5-yl)benzenesulfonamide] | – | – | – | – | – | – | – | 479 | 116 | 14.6 | 0.3906 | 25 | 37.5 | –
6 | NS(=O)(=O)c1c(Br)ccc(-c2ccc(C3CCNCC3)cc2)c1-c1nnn[nH]1 [Example 259, 4-Bromo-4′-(piperidin-4-yl)-2-(1H-tetrazol-5-yl)-[1,1′-biphenyl]-3-sulfonamide] | – | – | – | – | – | – | – | 10.1 | 3.1 | 11 | 1.584 | 1 | 3.125 | –
7 | NS(=O)(=O)c1cccc(-c2cn(S(=O)(=O)c3ccccc3)c3ncccc23)c1-c1nn[nH]n1 [Example 109, 3-[1-(phensulfonyl)-1H-pyrrolo[2,3-b]pyridin-3-yl]-2-(2H-tetrazol-5-yl)benzenesulfonamide] | 38.9 | 0.637 | 2.21 | 12.5 | 12.89 | 18.75 | – | – | – | – | – | – | – | –
8 | NS(=O)(=O)c1cccc(-c2ccc3[nH]c(=O)[nH]c3c2)c1-c1nn[nH]n1 [Example 84, 3-(2-oxo-2,3-dihydro-1H-benzimidazol-5-yl)-2-(2H-tetrazol-5-yl)benzenesulfonamide] | 708 | – | 3.08 | 0.7813 | 50 | 6.25 | 23.2 | – | – | – | – | – | – | –
9 | NS(=O)(=O)c1cc(Cl)cc(-c2ccc3c(c2)C(=O)NC3)c1-c1nn[nH]n1 [Example 289, 5-Chloro-3-(3-oxo-2,3-dihydro-1H-isoindol-5-yl)-2-(2H-tetrazol-5-yl)benzenesulfonamide] | – | – | – | – | – | – | – | 121 | 452 | 13.5 | 3.125 | 31.25 | >200 | –
10 | NS(=O)(=O)c1nccc(-c2ccc3c(c2)CC(=O)N3)c1-c1nn[nH]n1 [Example 201, 4-(2-oxoindolin-5-yl)-3-(2H-tetrazol-5-yl)pyridine-2-sulfonamide] | 1450 | 67.1 | 66.2 | 0.7813 | 50 | 18.75 | – | – | – | – | – | – | – | –
11 | NC(=O)Cc1ccc(-c2cccc(S(N)(=O)=O)c2-c2nnn[nH]2)cc1 [Example 303, 2-(3′-sulfamoyl-2′-(1H-tetrazol-5-yl)-[1,1′-biphenyl]-4-yl)acetamide] | – | – | – | – | – | – | – | 59 | 44.6 | 5.06 | 0.9766 | 2.344 | 18.75 | –
12 | NS(=O)(=O)c1nccc(N2CCC3(CCNCC3)CC2)c1-c1nn[nH]n1 [Example 245, 4-(3,9-diazaspiro[5.5]undecan-3-yl)-3-(2H-tetrazol-5-yl)pyridine-2-sulfonamide] | – | – | – | – | – | – | – | 9780 | 460 | 266 | 0.3906 | 50 | 12.5 | –
13 | NS(=O)(=O)c1nccc(-c2ccc3[nH]nc(C(F)(F)F)c3c2)c1-c1nn[nH]n1 [Example 209, 3-(2H-tetrazol-5-yl)-4-(3-(trifluoromethyl)-1H-indazol-5-yl)pyridine-2-sulfonamide] | 516 | – | 26.3 | 2.604 | 75 | 37.5 | 5.45 | – | – | – | – | – | – | –
14 | CN1CCC=C(c2cccc(S(N)(=O)=O)c2-c2nn[nH]n2)C1 [Example 65, 3-(1-methyl-1,2,5,6-tetrahydropyridin-3-yl)-2-(2H-tetrazol-5-yl)benzenesulfonamide] | 20000 | – | 905 | 4.688 | >200 | >200 | 4990 | – | – | – | – | – | – | –
15 | CN(C)Cc1ccc(-c2cccc(S(N)(=O)=O)c2-c2nnn[nH]2)cc1 [Example 327, 4′-((Dimethylamino)methyl)-2-(1H-tetrazol-5-yl)-[1,1′-biphenyl]-3-sulfonamide] | – | – | – | – | – | – | – | 534 | – | 37.7 | 0.7813 | 12.5 | 100 | 216
16 | NCc1ccc(-c2cccc(S(N)(=O)=O)c2-c2nnn[nH]2)cn1 [Example 306, 3-(6-(aminomethyl)pyridin-3-yl)-2-(1H-tetrazol-5-yl)benzenesulfonamide] | – | – | – | – | – | – | – | 3740 | 300 | 104 | 1.172 | 50 | 25 | –
17 | COc1ccc(-c2cccc(S(N)(=O)=O)c2-c2nn[nH]n2)cn1 [Example 78, 3-(6-methoxypyridin-3-yl)-2-(2H-tetrazol-5-yl)benzenesulfonamide] | 202 | – | 19.3 | 0.7813 | 18.75 | 100 | 147 | – | – | – | – | – | – | –
18 | CS(=O)(=O)N1CCC(c2cccc(S(N)(=O)=O)c2-c2nn[nH]n2)CC1 [Example 172, 3-(1-(methylsulfonyl)piperidin-4-yl)-2-(2H-tetrazol-5-yl)benzenesulfonamide] | 720 | – | 16.5 | 4.688 | 18.75 | 100 | 421 | – | – | – | – | – | – | –
19 | Cc1ccc(-c2cc(-c3ccc4c(c3)CNC4)cc(S(N)(=O)=O)c2-c2nn[nH]n2)cc1 [Example 294, 5-(isoindolin-5-yl)-4′-methyl-2-(2H-tetrazol-5-yl)-[1,1′-biphenyl]-3-sulfonamide] | – | – | – | – | – | – | – | 29.4 | – | 0.637 | 0.3802 | 0.6406 | 37.5 | 193
20 | NS(=O)(=O)c1cccc(C2=CCCOC2)c1-c1nn[nH]n1 [Example 63, 3-(5,6-dihydro-2H-pyran-3-yl)-2-(2H-tetrazol-5-yl)benzenesulfonamide] | 1560 | – | 48.9 | 0.7813 | 50 | 100 | 1320 | – | – | – | – | – | – | –
